These results are taken from ChEMBL document CHEMBL6103569, “Discovery of novel fluorine-containing parthenolide analogues as potential antitumor agents” (Eur J Med Chem, 2025).

Calls of active or inactive are those of the source. The calls are words filed in the database; no cut-off is given here.

Assay [1] relates to PANC-1. Briefly: Antiproliferative activity against human PANC-1 cells assessed as inhibition of cell growth incubated for 72 hrs by MTT assay. The format is functional, cell-based.
Assay [2] relates to Huh-7. Briefly: Antiproliferative activity against human Huh-7 cells assessed as inhibition of cell growth incubated for 72 hrs by MTT assay. The class given is functional, cell-based.
Assay [3] is described as follows: Antiproliferative activity against human NCI-H820 cells assessed as inhibition of cell growth incubated for 72 hrs by MTT assay. The class given is functional, cell-based.
Assay [4] concerns NCI-H820. Briefly: Upregulation of E-cadherin level in human NCI-H820 cells upto 5 uM incubated for 48 hrs by Western blot analysis. The format is functional, cell-based.
In assay [5] the test system is NCI-H820. The experiment in a line: Inhibition of Bcl-2 expression in human NCI-H820 cells incubated for 48 hrs by Western blot analysis. The class given is functional, cell-based. The settings on record: dose <= 5.0 µM.
Assay [6] can be described thus: Induction of apoptosis in human NCI-H820 cells assessed as early apoptotic cells at 10 uM incubated for 48 hrs by Annexin V/FITC staining based flow cytometry analysis (reference value: 0.012%). The format is functional.
Assay [7] concerns Huh-7. Briefly: Inhibition of colony formation in human Huh-7 cells incubated for 7 to 10 days by crystal violet staining based analysis. The format is functional, cell-based. The settings on record: dose 0.2-5 µM, time 7-10 day.
A short description of assay [8]: Induction of apoptosis in human NCI-H820 cells assessed as late apoptotic cells at 5 uM incubated for 48 hrs by Annexin V/FITC staining based flow cytometry analysis (reference value: 0.025%). The class given is functional.
The test system of assay [9] is NCI-H820. The experiment in a line: Inhibition of cell migration in human NCI-H820 cells assessed as decrease in migration rate incubated for 48 hrs by wound healing assay. The settings on record: dose <= 5.0 µM. The format is functional, cell-based.
The nature of assay [10]: Induction of apoptosis in human NCI-H820 cells assessed as viable cells at 2 uM incubated for 48 hrs by Annexin V/FITC staining based flow cytometry analysis (reference value: 98%). The format is functional. The note with it: read-out: Activity.
A short description of assay [11]: Induction of apoptosis in human NCI-H820 cells assessed as late apoptotic cells at 10 uM incubated for 48 hrs by Annexin V/FITC staining based flow cytometry analysis (reference value: 0.025%). The format is functional.
Assay [12] relates to PANC-1. The experiment in a line: Inhibition of colony formation in human PANC-1 cells incubated for 7 to 10 days by crystal violet staining based analysis. The class given is functional, cell-based. The settings on record: dose 0.2-5 µM, time 7-10 day.
Assay [13] can be described thus: Induction of apoptosis in human NCI-H820 cells assessed as early apoptotic cells at 2 uM incubated for 48 hrs by Annexin V/FITC staining based flow cytometry analysis (reference value: 0.012%). The format is functional.
Assay [14] is described as follows: Induction of apoptosis in human NCI-H820 cells assessed as early apoptotic cells at 5 uM incubated for 48 hrs by Annexin V/FITC staining based flow cytometry analysis (reference value: 0.012%). The format is functional.
Assay [15] in a line: Induction of apoptosis in human NCI-H820 cells assessed as late apoptotic cells at 2 uM incubated for 48 hrs by Annexin V/FITC staining based flow cytometry analysis (reference value: 0.025%). The format is functional.
Assay [16] is described as follows: Induction of apoptosis in human NCI-H820 cells assessed as necrotic cells at 5 uM incubated for 48 hrs by Annexin V/FITC staining based flow cytometry analysis (reference value: 0.060%). The format is functional.
The subject of assay [17] is NCI-H820. Briefly: Downregulation of STAT3 level in human NCI-H820 cells incubated for 48 hrs by Western blot analysis. The class given is functional, cell-based. The settings on record: dose <= 5.0 µM.
The nature of assay [18]: Induction of apoptosis in human NCI-H820 cells assessed as viable cells at 5 uM incubated for 48 hrs by Annexin V/FITC staining based flow cytometry analysis (reference value: 98%). The class given is functional. The settings on record: read-out: Activity.
Assay [19] relates to NCI-H820. Briefly: Inhibition of colony formation in human NCI-H820 cells incubated for 7 to 10 days by crystal violet staining based analysis. The class given is functional, cell-based. The settings on record: dose 0.2-5 µM, time 7-10 day.
For assay [20], the target named is Signal transducer and activator of transcription 3 (Homo sapiens) (UniProt P40763). Briefly: Inhibition of STAT3 phosphorylation in human NCI-H820 cells incubated for 48 hrs by Western blot analysis. The format is cell-based. The settings on record: dose <= 5.0 µM.
Sequence of Signal transducer and activator of transcription 3 (Homo sapiens) (P40763 whole entry): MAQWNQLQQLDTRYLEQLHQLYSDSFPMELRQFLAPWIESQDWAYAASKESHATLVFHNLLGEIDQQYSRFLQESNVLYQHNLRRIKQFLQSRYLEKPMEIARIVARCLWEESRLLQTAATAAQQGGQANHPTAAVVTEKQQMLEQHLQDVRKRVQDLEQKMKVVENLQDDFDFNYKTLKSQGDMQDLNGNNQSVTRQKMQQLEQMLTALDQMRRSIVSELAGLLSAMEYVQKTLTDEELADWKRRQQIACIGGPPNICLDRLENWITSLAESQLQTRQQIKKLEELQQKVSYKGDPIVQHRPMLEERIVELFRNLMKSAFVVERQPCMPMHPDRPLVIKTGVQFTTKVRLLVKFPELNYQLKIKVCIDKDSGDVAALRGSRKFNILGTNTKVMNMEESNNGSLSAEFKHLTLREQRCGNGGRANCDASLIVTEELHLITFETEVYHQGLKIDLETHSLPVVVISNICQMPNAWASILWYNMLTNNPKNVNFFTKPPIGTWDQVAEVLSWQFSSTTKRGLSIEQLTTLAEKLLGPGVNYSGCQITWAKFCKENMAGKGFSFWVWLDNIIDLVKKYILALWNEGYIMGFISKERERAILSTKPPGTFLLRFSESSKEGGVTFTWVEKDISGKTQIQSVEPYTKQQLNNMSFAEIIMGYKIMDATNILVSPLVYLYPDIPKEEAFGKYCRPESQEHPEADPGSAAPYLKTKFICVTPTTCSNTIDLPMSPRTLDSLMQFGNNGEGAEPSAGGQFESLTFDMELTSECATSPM
In assay [21] the test system is NCI-H820. Briefly: Downregulation of Vimentin level in human NCI-H820 cells upto 5 uM incubated for 48 hrs by Western blot analysis. The format is functional, cell-based.
In assay [22] the test system is NCI-H820. Briefly: Inhibition of Ki67 expression in human NCI-H820 cells incubated for 48 hrs by Western blot analysis. The format is functional, cell-based. The note with it: dose <= 5.0 µM.
A short description of assay [23]: Induction of apoptosis in human NCI-H820 cells assessed as necrotic cells at 2 uM incubated for 48 hrs by Annexin V/FITC staining based flow cytometry analysis (reference value: 0.060%). The class given is functional.
Assay [24] has as its system NCI-H820. Briefly: Inhibition of cell migration in human NCI-H820 cells assessed as decrease in migration rate incubated for 48 hrs by transwell assay. The settings on record: dose <= 5.0 µM. The class given is functional, cell-based.
The nature of assay [25]: Induction of apoptosis in human NCI-H820 cells assessed as necrotic cells at 10 uM incubated for 48 hrs by Annexin V/FITC staining based flow cytometry analysis (reference value: 0.060%). The format is functional.

As for `C[C@@]12CC/C=C(/CC(F)(F)F)CC[C@H]3C(CN4CCCC4)C(=O)O[C@@H]3[C@@H]1O2` (stereo not given in full) [listing 1 of 2 here], the IC50 with PANC-1 [1] (Homo sapiens, PANC-1, 72 h) is 5.68 µM; in the assay with Huh-7 [2] (Homo sapiens, Huh-7, 72 h), 3.57 µM; in assay [3] (Homo sapiens, NCI-H820, 72 h) it was 6.65 µM.

Consider `C[C@@]12CC/C=C(/CC(F)(F)F)CC[C@H]3C(CN4CCC(O)CC4)C(=O)O[C@@H]3[C@@H]1O2` (stereo not given in full), for which the IC50 in the assay with PANC-1 [1] (panc-1) was determined as 5.43 µM; with Huh-7 [2] (huh-7) it was 2.38 µM; in assay [3] (nci-h820), 4.88 µM.

Consider `C=C1C(=O)O[C@H]2[C@H]1CC/C(CC(F)(F)F)=C\CC[C@@]1(C)O[C@@H]21`, for which the outcome in the assay on NCI-H820 [4] and in the assay with NCI-H820 [21] was Active. Also, the inhibition result (with NCI-H820 [5]; in the assay on NCI-H820 [9]; in assay [20]; in the assay on NCI-H820 [22]; in the assay with NCI-H820 [24]) was “Dose-dependent-effect” each time. Also, the Activity in [6] is listed as 0.06%; in assay [8] it was 6.54%; in assay [11], 5.24%; in assay [13] it was 0.14%; in assay [14] it was 2.77%; in assay [15], 0.51%. For the same compound, the Activity was 2.07% in assay [16], “Dose-dependent-effect” in the assay on NCI-H820 [17], 1.4% in assay [23] and 0.55% in assay [25]. Moreover, the inhibition entry in the assay with Huh-7 [7], with PANC-1 [12] and with NCI-H820 [19] was “Active” in each case. For the same compound, the viability at 2 µM in assay [10] was 64%. The IC50 in the assay on PANC-1 [1] (Homo sapiens, PANC-1, 72 h) was determined as 2.16 µM; in the assay on Huh-7 [2] (Homo sapiens, Huh-7, 72 h) it was 2.36 µM; in [3] (Homo sapiens, NCI-H820, 72 h), 2.66 µM. Also, in [18], the viability at 5 µM was 86.8%.

Take `CN1CCN(CC2C(=O)O[C@H]3[C@H]2CC/C(CC(F)(F)F)=C\CC[C@@]2(C)O[C@@H]32)CC1` (stereo not given in full) [listing 1 of 2 here]: the IC50 came out at 15.8 µM with PANC-1 [1] (Homo sapiens, PANC-1, 72 h); 14.9 µM in the assay with Huh-7 [2] (Homo sapiens, Huh-7, 72 h); 30.7 µM in assay [3] (Homo sapiens, NCI-H820, 72 h).

Consider `C[C@@]12CC/C=C(/CC(F)(F)F)CC[C@H]3C(CN4CC[C@@H](O)C4)C(=O)O[C@@H]3[C@@H]1O2` (stereo not given in full), for which the results for the IC50 (in the assay on PANC-1 [1] (panc-1); in the assay on Huh-7 [2] (huh-7); in assay [3] (nci-h820)) were 3.23 µM, 3.1 µM and 3.95 µM, respectively.

As for `CN1CCN(CC2C(=O)O[C@H]3[C@H]2CC/C(CC(F)(F)F)=C\CC[C@@]2(C)O[C@@H]32)CC1` (stereo not given in full) [listing 2 of 2 here], the IC50 in the assay with PANC-1 [1] (panc-1) is 12.7 µM; in the assay with Huh-7 [2] (huh-7), 14.2 µM; in [3] (nci-h820), 22.5 µM.

`C[C@@]12CC/C=C(/CC(F)(F)F)CC[C@H]3C(CN4CCCC4)C(=O)O[C@@H]3[C@@H]1O2` (stereo not given in full) [listing 2 of 2 here]: the IC50 in the assay with PANC-1 [1] (panc-1) was found to be 5.19 µM; in the assay with Huh-7 [2] (huh-7), 4.1 µM; in assay [3] (nci-h820), 6.44 µM.

As for `CCCNCC1C(=O)O[C@H]2[C@H]1CC/C(CC(F)(F)F)=C\CC[C@@]1(C)O[C@@H]21` (stereo not given in full), the IC50 in the assay with PANC-1 [1] (Homo sapiens, PANC-1, 72 h) amounted to 4.59 µM; with Huh-7 [2] (Homo sapiens, Huh-7, 72 h) it was 4.32 µM; in assay [3] (Homo sapiens, NCI-H820, 72 h), 4.39 µM.

Turning to `C=C1C(=O)O[C@H]2[C@H]1CC/C(CO)=C\CC[C@@]1(C)O[C@@H]21`, the half-inhibitory concentration (IC50) stood at 15.6 µM with PANC-1 [1] (Homo sapiens, PANC-1, 72 h); 10.1 µM with Huh-7 [2] (Homo sapiens, Huh-7, 72 h); 13.3 µM in assay [3] (Homo sapiens, NCI-H820, 72 h).

On to `C=C1C(=O)O[C@H]2[C@H]1CC/C(C)=C/CC[C@@]1(C)O[C@@H]21` [PARTHENOLIDE], for which the IC50 with PANC-1 [1] (Homo sapiens, PANC-1, 72 h) turned out to be 5.13 µM; with Huh-7 [2] (Homo sapiens, Huh-7, 72 h), 3.6 µM; in assay [3] (Homo sapiens, NCI-H820, 72 h), 6.35 µM.

Regarding `C=C1C(=O)O[C@H]2[C@H]1CC/C(C=C(F)F)=C\CC[C@@]1(C)O[C@@H]21`, the IC50 was 14.2 µM in the assay with PANC-1 [1] (Homo sapiens, PANC-1, 72 h); 7.52 µM with Huh-7 [2] (Homo sapiens, Huh-7, 72 h); 9.9 µM in assay [3] (Homo sapiens, NCI-H820, 72 h).
